The target of test [1] is T1, human calcitonin receptor (hCTR) (Homo sapiens, UniProt P30988).
T1 construct: host or cells: BHK (Baby Hamster Kidney), Hollex-1 cell line
T1 sequence (P30988 25-474): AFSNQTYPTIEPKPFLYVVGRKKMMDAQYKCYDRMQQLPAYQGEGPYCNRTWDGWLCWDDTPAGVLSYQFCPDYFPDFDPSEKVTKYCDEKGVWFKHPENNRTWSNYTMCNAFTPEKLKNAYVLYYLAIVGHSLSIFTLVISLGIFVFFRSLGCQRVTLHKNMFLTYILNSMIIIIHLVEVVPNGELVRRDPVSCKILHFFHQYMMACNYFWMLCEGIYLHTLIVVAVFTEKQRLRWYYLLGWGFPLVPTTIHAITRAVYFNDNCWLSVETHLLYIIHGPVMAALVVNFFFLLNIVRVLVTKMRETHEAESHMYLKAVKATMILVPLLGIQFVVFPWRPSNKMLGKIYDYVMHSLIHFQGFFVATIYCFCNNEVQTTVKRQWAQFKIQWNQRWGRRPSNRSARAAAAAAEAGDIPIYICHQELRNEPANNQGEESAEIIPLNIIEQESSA
The test can be described thus: Human calcitonin receptor (hCTR) in vitro potency assay, CRE-luciferase reporter in BHK cells. The following applies: BHK hCTR/CRE-Luc cells, 3 hours incubation, assay buffer with 1% ovalbumin; read-out: hCalcR potency, EC50. It counts as cell-based. A digest of the protocol:
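Luciferase signal from a CRE reporter served as the cAMP read-out after 3 h, 37 °C exposure to compound. Cells were stably transfected BHK expressing hCTR, and the buffer was phenol-red-free DMEM with 10 mM HEPES and 1% ovalbumin. Compounds were tested as 7-point, 7-fold dilutions, often from about 10 nM.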

In test [2] the target is T2, human amylin receptor (hAMYR3) (Homo sapiens, UniProt O60896+P30988).
T2 construct: host or cells: BHK (Baby Hamster Kidney), Hollex-1 cell line further transfected with RAMP3
T2 sequence (O60896 24-148, one chain of several): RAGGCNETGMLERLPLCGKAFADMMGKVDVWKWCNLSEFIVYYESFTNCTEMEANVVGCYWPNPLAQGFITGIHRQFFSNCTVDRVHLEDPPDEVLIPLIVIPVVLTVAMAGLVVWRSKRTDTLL
The test can be described thus: Human amylin receptor (hAMYR3) in vitro potency assay, CRE-luciferase reporter in BHK cells. The class given is cell-based. The following applies: BHK hAMYR3/CRE-Luc cells, 3 hours incubation, assay buffer with 1% ovalbumin. In outline: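 Luminescence from a CRE-driven luciferase reporter reflects cAMP-mediated receptor activation. Peptides were serially diluted (7 concentrations, 7-fold steps, typically starting near 10 nM) in buffer with 1% ovalbumin and applied for 3 h at 37 °C to BHK cells co-expressing calcitonin receptor (a) and RAMP3.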

Starred links: 1 amine or outer side, 2 acyl side, 3 side chain; linkers in the order of their positions; H or OH if unused. Residues, ends and D or L forms follow the SMILES beside them. *: point of attachment. C18 diacid = O=C(O)CCCCCCCCCCCCCCCCC(=O)*; γGlu = O=C(O)[C@H](CCC(=O)[*:2])N[*:1]

`CC[C@H](C)[C@H](NC(=O)[C@H](C)NC(=O)CNC(=O)[C@H](Cc1ccccc1)NC(=O)[C@@H]1CCCN1C(=O)[C@H](CCC(=O)O)NC(=O)[C@H](CO)NC(=O)[C@H](CO)NC(=O)[C@H](Cc1c[nH]cn1)NC(=O)[C@H](Cc1c[nH]cn1)NC(=O)[C@H](CC(C)C)NC(=O)[C@H](Cc1ccccc1)NC(=O)[C@H](CCC(=O)O)NC(=O)[C@H](C)NC(=O)[C@H](CC(C)C)NC(=O)[C@H](CCCNC(=N)N)NC(=O)[C@H](CCC(N)=O)NC(=O)[C@@H](NC(=O)[C@H](CCC(N)=O)NC(=O)[C@H](C)NC(=O)[C@@H](NC(=O)[C@H](CO)NC(=O)[C@H](CC(C)C)NC(=O)[C@H](Cc1c[nH]cn1)NC(=O)[C@H](CO)NC(=O)[C@H](C)NC(=O)CC[C@H](NC(=O)CCCCCCCCCCCCCCCCC(=O)O)C(=O)O)[C@@H](C)O)[C@@H](C)O)C(=O)N1CCC[C@H]1C(=O)N[C@@H](CO)C(=O)N[C@@H](CO)C(=O)N[C@H](C(=O)N[C@@H](CCC(=O)O)C(=O)N[C@H](C(=O)NCC(=O)N1CCC[C@H]1C(=O)N[C@@H](CCC(=O)O)C(=O)N[C@H](C(=O)N1CCC[C@H]1C(N)=O)[C@@H](C)O)C(C)C)[C@@H](C)O` [Compound 27, N^1-[(4S)-4-carboxy-4-(17-carboxyheptadecanoylamino)butanoyl]-[Ala1,Ser2,His3,Leu4,Ser5,Ala7,Gln8,Glu14,His17,Glu21,Pro22,Pro27,Glu31,Pro34,Glu35,Pro37]-human amylin] ({C18 diacid-γGlu}-ASHLSTAQTQRLAEFLHHSSEPFGAIPSSTEVGPETP-NH2): the EC50 (commonly the concentration needed to bring the measured effect to its halfway point) in test [1] was 1.78 pM; in test [2], 2.68 pM.
As to `CC[C@H](C)[C@H](NC(=O)[C@@H]1CCCN1C(=O)CNC(=O)[C@H](Cc1ccccc1)NC(=O)[C@H](Cc1c[nH]cn1)NC(=O)[C@H](Cc1c[nH]cn1)NC(=O)[C@H](CC(C)C)NC(=O)[C@H](Cc1ccccc1)NC(=O)[C@H](CCC(=O)O)NC(=O)[C@H](C)NC(=O)[C@H](CC(C)C)NC(=O)[C@H](CCCNC(=N)N)NC(=O)[C@H](CCC(N)=O)NC(=O)[C@@H](NC(=O)[C@H](CCC(N)=O)NC(=O)[C@H](C)NC(=O)[C@@H](NC(=O)[C@H](CO)NC(=O)[C@H](CC(C)C)NC(=O)[C@H](Cc1c[nH]cn1)NC(=O)[C@H](CO)NC(=O)[C@H](C)NC(=O)CC[C@H](NC(=O)CCCCCCCCCCCCCCCCC(=O)O)C(=O)O)[C@@H](C)O)[C@@H](C)O)C(=O)N[C@@H](CC(C)C)C(=O)N1CCC[C@H]1C(=O)N1CCC[C@H]1C(=O)N[C@H](C(=O)N[C@@H](CC(=O)O)C(=O)N[C@H](C(=O)NCC(=O)N[C@@H](CO)C(=O)N[C@@H](CCC(=O)O)C(=O)N[C@H](C(=O)N1CCC[C@H]1C(N)=O)[C@@H](C)O)C(C)C)[C@@H](C)O` [Compound 28, N^1-[(4S)-4-carboxy-4-(17-carboxyheptadecanoylamino)butanoyl]-[Ala1,Ser2,His3,Leu4,Ser5,Ala7,Gln8,Glu14,His17,Pro25,Pro28,Pro29,Asp31,Glu35,Pro37],des-(19-22)-human amylin] ({C18 diacid-γGlu}-ASHLSTAQTQRLAEFLHHFGPILPPTDVGSETP-NH2), the EC50 is 1.72 pM in test [1] and 2.06 pM in test [2].
Take `CC[C@H](C)[C@H](NC(=O)[C@@H]1CCCN1C(=O)CNC(=O)[C@H](Cc1ccccc1)NC(=O)[C@H](Cc1c[nH]cn1)NC(=O)[C@H](Cc1c[nH]cn1)NC(=O)[C@H](CC(C)C)NC(=O)[C@H](Cc1ccccc1)NC(=O)[C@H](CCC(=O)O)NC(=O)[C@H](C)NC(=O)[C@H](CC(C)C)NC(=O)[C@H](CCCNC(=N)N)NC(=O)[C@H](CCC(N)=O)NC(=O)[C@@H](NC(=O)[C@H](CCC(N)=O)NC(=O)[C@H](C)NC(=O)[C@@H](NC(=O)[C@H](CO)NC(=O)[C@H](CC(C)C)NC(=O)[C@H](CCC(=O)O)NC(=O)[C@H](CO)NC(=O)[C@H](C)NC(=O)CC[C@H](NC(=O)CCCCCCCCCCCCCCCCC(=O)O)C(=O)O)[C@@H](C)O)[C@@H](C)O)C(=O)N[C@@H](CC(C)C)C(=O)N1CCC[C@H]1C(=O)N1CCC[C@H]1C(=O)N[C@H](C(=O)N[C@@H](CC(=O)O)C(=O)N[C@H](C(=O)NCC(=O)N[C@@H](CO)C(=O)N[C@@H](CCC(=O)O)C(=O)N[C@H](C(=O)N1CCC[C@H]1C(N)=O)[C@@H](C)O)C(C)C)[C@@H](C)O` [Compound 29, N^1-[(4S)-4-carboxy-4-(17-carboxyheptadecanoylamino)butanoyl]-[Ala1,Ser2,Glu3,Leu4,Ser5,Ala7,Gln8,Glu14,His17,Pro25,Pro28,Pro29,Asp31,Glu35,Pro37],des-(19-22)-human amylin] ({C18 diacid-γGlu}-ASELSTAQTQRLAEFLHHFGPILPPTDVGSETP-NH2): the EC50 in test [1] is 3.08 pM; in test [2] it was 5.2 pM.
Regarding `CC[C@H](C)[C@H](NC(=O)[C@@H]1CCCN1C(=O)CNC(=O)[C@H](Cc1ccccc1)NC(=O)[C@H](Cc1c[nH]cn1)NC(=O)[C@H](Cc1c[nH]cn1)NC(=O)[C@H](CC(C)C)NC(=O)[C@H](Cc1ccccc1)NC(=O)[C@H](CCC(=O)O)NC(=O)[C@H](C)NC(=O)[C@H](CC(C)C)NC(=O)[C@H](CCCNC(=N)N)NC(=O)[C@H](CCC(N)=O)NC(=O)[C@@H](NC(=O)[C@H](CCC(N)=O)NC(=O)[C@H](C)NC(=O)[C@@H](NC(=O)[C@H](CO)NC(=O)[C@H](CC(C)C)NC(=O)[C@H](CO)NC(=O)CNC(=O)[C@H](C)NC(=O)CC[C@H](NC(=O)CC[C@H](NC(=O)CCCCCCCCCCCCCCCCC(=O)O)C(=O)O)C(=O)O)[C@@H](C)O)[C@@H](C)O)C(=O)N[C@@H](CC(C)C)C(=O)N1CCC[C@H]1C(=O)N1CCC[C@H]1C(=O)N[C@H](C(=O)N[C@@H](CC(=O)O)C(=O)N[C@H](C(=O)NCC(=O)N[C@@H](CO)C(=O)N[C@@H](CCC(=O)O)C(=O)N[C@H](C(=O)N1CCC[C@H]1C(N)=O)[C@@H](C)O)C(C)C)[C@@H](C)O` [Compound 30, N^1-[(4S)-4-carboxy-4-[[(4S)-4-carboxy-4-(17-carboxyheptadecanoylamino)butanoyl]amino]butanoyl]-[Ala1,Gly2,Ser3,Leu4,Ser5,Ala7,Gln8,Glu14,His17,Pro25,Pro28,Pro29,Asp31,Glu35,Pro37],des-(19-22)-human amylin] ({C18 diacid-γGlu-γGlu}-AGSLSTAQTQRLAEFLHHFGPILPPTDVGSETP-NH2), the figures for the concentration giving a half-maximal response (EC50) in test [1] and in test [2] were 2.07 pM and 2.37 pM, respectively.
As for `CC[C@H](C)[C@H](NC(=O)[C@@H]1CCCN1C(=O)CNC(=O)[C@H](Cc1ccccc1)NC(=O)[C@H](Cc1c[nH]cn1)NC(=O)[C@H](Cc1c[nH]cn1)NC(=O)[C@H](CC(C)C)NC(=O)[C@H](Cc1ccccc1)NC(=O)[C@H](CCC(=O)O)NC(=O)[C@H](C)NC(=O)[C@H](CC(C)C)NC(=O)[C@H](CCCNC(=N)N)NC(=O)[C@H](CCC(N)=O)NC(=O)[C@@H](NC(=O)[C@H](CCC(N)=O)NC(=O)[C@H](C)NC(=O)[C@@H](NC(=O)[C@H](CO)NC(=O)[C@H](CC(C)C)NC(=O)[C@H](Cc1c[nH]cn1)NC(=O)[C@H](CO)NC(=O)[C@H](C)NC(=O)CC[C@H](NC(=O)CC[C@H](NC(=O)CCCCCCCCCCCCCCCCC(=O)O)C(=O)O)C(=O)O)[C@@H](C)O)[C@@H](C)O)C(=O)N[C@@H](CC(C)C)C(=O)N1CCC[C@H]1C(=O)N1CCC[C@H]1C(=O)N[C@H](C(=O)N[C@@H](CC(=O)O)C(=O)N[C@H](C(=O)NCC(=O)N[C@@H](CO)C(=O)N[C@@H](CCC(=O)O)C(=O)N[C@H](C(=O)N1CCC[C@H]1C(N)=O)[C@@H](C)O)C(C)C)[C@@H](C)O` [Compound 31, N^1-[(4S)-4-carboxy-4-[[(4S)-4-carboxy-4-(17-carboxyheptadecanoylamino)butanoyl]amino]butanoyl]-[Ala1,Ser2,His3,Leu4,Ser5,Ala7,Gln8,Glu14,His17,Pro25,Pro28,Pro29,Asp31,Glu35,Pro37],des-(19-22)-human amylin] ({C18 diacid-γGlu-γGlu}-ASHLSTAQTQRLAEFLHHFGPILPPTDVGSETP-NH2), the half-maximal effective concentration (EC50) in test [1] was 2.13 pM; in test [2], 2.03 pM.

The values are drawn from patent US12116388B2, “Amylin receptor agonists” (Novo Nordisk A/S, priority 2022, dated 2024).
